Experimental data taken from patent US4451465A, “Anti-obesity agents” (John Wyeth & Brother Ltd., priority 1981, dated 1984).

Assays:
[1] = target: BAT microsomal Na^+, K^+ -ATPase; assay: stimulation of Na^+, K^+ -ATPase in BAT microsomal fraction; assay type: biochemical, rat (adult male Sprague-Dawley)
Experimental: (§1) In one procedure for testing for potential thermogenic activity the compounds are tested for their ability to inhibit noradrenaline uptake in rat brown adipose tissue (BAT). Compounds that have a specific thermogenic effect without having undesirable central effects should inhibit BAT noradrenaline (NA) uptake at lower concentrations than those required to inhibit corresponding NA uptake in the brain. In another procedure for testing for thermogenic activity the compounds are investigated for their effect on the activity of sodium potassium activated, magnesium dependent adenosinetriphosphatase (Na^+, K^+ -ATPase) in rat BAT fractions.
(§2) In the above mentioned procedures adult male Sprague-Dawley rats were used. Homogenates of BAT were prepared by homogenising interscapular BAT. Microsomal material was separated by centrifugation of the BAT homogenate. Measurement of NA uptake into BAT and brain slices was carried out using radiolabelled noradrenaline (based upon the procedure of Sugden, Br. J. Pharmac., 1974,51, 467-469). Adenosinetriphosphate activities were measured by monitoring the release of inorganic phosphate from ATP. Na^+, K^+ -ATPase was calculated as the difference between total and sodium ATPase.

[2] = tested on: noradrenaline (NA) uptake in rat brown adipose tissue (BAT); assay: inhibition of noradrenaline uptake in BAT; assay type: cell-based, rat (adult male Sprague-Dawley); details: for IC50: mean ± S.E. mean of 6 experiments, rat BAT
Experimental: In one procedure for testing for potential thermogenic activity the compounds are tested for their ability to inhibit noradrenaline uptake in rat brown adipose tissue (BAT). […] In another procedure for testing for thermogenic activity the compounds are investigated for their effect on the activity of sodium potassium activated, magnesium dependent adenosinetriphosphatase (Na^+, K^+ -ATPase) in rat BAT fractions.
as §2, with “Measurement of NA uptake into BAT and brain slices was carried out using radiolabelled noradrenaline (based upon the procedure of Sugden, Br. J. Pharmac., 1974,51, 467-469).” left out

[3] = tested on: noradrenaline (NA) uptake into brain slices; assay: inhibition of noradrenaline uptake in brain slices; assay type: cell-based, rat (adult male Sprague-Dawley); details: mean ± S.E. mean of 6 experiments; rat brain slices
Experimental: as §1, §2

[4] = target: BAT homogenate Na^+, K^+ -ATPase; assay: stimulation of Na^+, K^+ -ATPase in BAT homogenate; assay type: biochemical, rat (adult male Sprague-Dawley); details: for IC50: homogenate, read-out: IC50 for stimulation (to 50% maximum) of BAT Na^+,K-ATP-ase, homogenate
Experimental: as §1, §2

brown adipose tissue = assay: thermogenic activity (pharmacological testing); parameters: species or system rat; details: compared with corresponding (+)-enantiomers
Experimental: as §1, §2

male rats = assay: chronic (28 day) administration to male rats: body weight and food intake; assay type: in vivo, rat; details: 28 days
Excerpt: The anti-obesity activity of (±)-2,3,4,10-tetrahydro-3,3-dimethyl-10-phenylpyrimido[1,2-a]indol-10-ol has been confirmed by chronic (28 day) administration to male rats. The animals were fed on a standard pelleted diet and the active agent was introduced into the water supply. Body weight, food and water intake and behaviour were monitored over the next four weeks.

rats [5] = assay: resting metabolic rate (resting oxygen consumption) in rats; assay type: in vivo, rat
Excerpt: (§3) It is also known that there is a good correlation between BAT homogenate Na^+, K^+ -ATPase activity and the resting metabolic rate (see, for example, Rothwell, Stock and Wyllie, Biochem. Pharmacol., 1981, 30, 1709-1712) and those compounds, such as the agents of the present invention that activate BAT Na^+ K^+ -ATPase activity are indicated as useful as thermogenic agents and can be used in the treatment of obesity.

rats [6] = assay: signs of CNS arousal in rats; assay type: in vivo, rat; details: dosages as high as 30 mg/kg p.o.
Excerpt: as §3

| SMILES | IC50 for stimulation (to 50% maximum) of BAT Na^+,K-ATP-ase, microsomal fraction [1] | IC50 [2] [nM] | IC50 [3] [nM] | IC50 [4] [nM] | activity as thermogenic agents, (-) versus (+)-enantiomers (brown adipose tissue) | weight gain compared to controls (male rats; 3.5 mg/kg/day in water supply) | weight gain compared to controls (male rats; 6.5 mg/kg/day in water supply) | body weight (male rats; 10.8 mg/kg/day in water supply) | food intake (male rats; 3.5, 6.5 and 10.8 mg/kg/day in water supply) | direct stimulation of BAT microsomal Na^+, K^+ -ATPase ([1]; BAT microsomal) | potency in inhibiting NA uptake into BAT versus brain slices ([2]; BAT compared with brain slices) | resting metabolic rate (resting oxygen consumption) (rats [5]) | stimulation of homogenate Na^+, K^+ -ATPase ([4]; BAT homogenate) | signs of CNS arousal (rats [6]) |
| --- | --- | --- | --- | --- | --- | --- | --- | --- | --- | --- | --- | --- | --- | --- |
| CC1(C)CN=C2N(C1)c1ccccc1C2(O)c1ccccc1 (single isomer, unassigned; (-)) [(-), (-)-2,3,4,10-Tetrahydro-3,3-dimethyl-10-phenylpyrimido[1,2-a]indol-10-ol] | none at 10^-4 | 18 | 2400 | 32 | more active, as thermogenic agents, than the corresponding (+)-enantiomers | – | – | – | – | – | – | – | – | – |
| CC1(C)CN=C2N(C1)c1ccccc1C2(O)c1ccccc1 (racemic) [(±), (±)-2,3,4,10-tetrahydro-3,3-dimethyl-10-phenylpyrimido[1,2-a]indol-10-ol] | none at 10^-4 | 28 | 3400 | 43 | – | reduced weight gain | reduced weight gain | weight loss | no significant effect on food intake | – | – | – | – | – |
| CC1(C)CN=C2N(C1)c1ccccc1C2(O)c1ccccc1 (stereo not drawn) [compound of the invention, 2,3,4,10-tetrahydro-3,3-dimethyl-10-phenylpyrimido[1,2-a]indol-10-ol] | – | – | – | – | – | – | – | – | – | did not directly stimulate | considerably more potent in inhibiting NA uptake into BAT than into brain slices | increases the resting metabolic rate | significant stimulation | did not produce signs of CNS arousal |
